Reference: the NIST ThermoML archive (doi:10.1021/acs.jced.8b00132)
Several values for one entry are separate records, joined by “and”; a condition that tells them apart may be missing. Equal entries are not always repeated.

O=C(C(F)(F)C(F)(F)F)C(F)(C(F)(F)F)C(F)(F)F [dodecafluoro-2-methylpentan-3-one]
Settings | thermal conductivity
333.01 K, 108 kPa, Liquid, transient hot wire | 0.05128 W/m/K and 0.05126 W/m/K
333.21 K, 69192 kPa, Liquid, transient hot wire | 0.07561 W/m/K
333.22 K, 69183 kPa, Liquid, transient hot wire | 0.07544 W/m/K
333.25 K, 28069 kPa, Liquid, transient hot wire | 0.06356 W/m/K
333.26 K, 28068 kPa, Liquid, transient hot wire | 0.06353 W/m/K
333.28 K, 57706 kPa, Liquid, transient hot wire | 0.07259 W/m/K
333.29 K, 57707 kPa, Liquid, transient hot wire | 0.07259 W/m/K
333.34 K, 3947 kPa, Liquid, transient hot wire | 0.05333 W/m/K
333.35 K, 3945 kPa, Liquid, transient hot wire | 0.0533 W/m/K
333.35 K, 20435 kPa, Liquid, transient hot wire | 0.06088 W/m/K
333.36 K, 20438 kPa, Liquid, transient hot wire | 0.06085 W/m/K
333.37 K, 45549 kPa, Liquid, transient hot wire | 0.06924 W/m/K
333.39 K, 45558 kPa, Liquid, transient hot wire | 0.06943 W/m/K
333.46 K, 14103 kPa, Liquid, transient hot wire | 0.05826 W/m/K
333.47 K, 14107 kPa, Liquid, transient hot wire | 0.05827 W/m/K
333.47 K, 36549 kPa, Liquid, transient hot wire | 0.06656 W/m/K
333.48 K, 36550 kPa, Liquid, transient hot wire | 0.0665 W/m/K
333.58 K, 8568 kPa, Liquid, transient hot wire | 0.0556 W/m/K
333.58 K, 8574 kPa, Liquid, transient hot wire | 0.05562 W/m/K
333.67 K, 231 kPa, Liquid, transient hot wire | 0.05113 W/m/K
333.67 K, 232 kPa, Liquid, transient hot wire | 0.05114 W/m/K
333.7 K, 108 kPa, Liquid, transient hot wire | 0.05109 W/m/K
333.71 K, 108 kPa, Liquid, transient hot wire | 0.051 W/m/K
341.75 K, 117 kPa, Gas, transient hot wire | 0.01428 W/m/K
341.75 K, 153 kPa, Gas, transient hot wire | 0.01409 W/m/K
341.8 K, 117 kPa, Gas, transient hot wire | 0.01432 W/m/K
341.81 K, 154 kPa, Gas, transient hot wire | 0.01416 W/m/K
341.86 K, 61 kPa, Gas, transient hot wire | 0.01468 W/m/K
341.91 K, 62 kPa, Gas, transient hot wire | 0.01468 W/m/K
342.04 K, 153 kPa, Gas, transient hot wire | 0.01411 W/m/K
342.05 K, 117 kPa, Gas, transient hot wire | 0.01436 W/m/K
342.11 K, 116 kPa, Gas, transient hot wire | 0.01434 W/m/K
342.11 K, 153 kPa, Gas, transient hot wire | 0.0142 W/m/K
342.19 K, 61 kPa, Gas, transient hot wire | 0.01474 W/m/K
342.23 K, 61 kPa, Gas, transient hot wire | 0.01466 W/m/K
342.38 K, 153 kPa, Gas, transient hot wire | 0.0142 W/m/K
342.39 K, 115 kPa, Gas, transient hot wire | 0.01437 W/m/K
342.44 K, 116 kPa, Gas, transient hot wire | 0.01444 W/m/K
342.44 K, 153 kPa, Gas, transient hot wire | 0.01429 W/m/K
342.56 K, 60 kPa, Gas, transient hot wire | 0.01477 W/m/K
342.59 K, 61 kPa, Gas, transient hot wire | 0.01463 W/m/K
342.74 K, 153 kPa, Gas, transient hot wire | 0.01422 W/m/K
342.76 K, 115 kPa, Gas, transient hot wire | 0.0144 W/m/K
342.8 K, 153 kPa, Gas, transient hot wire | 0.01428 W/m/K
342.81 K, 116 kPa, Gas, transient hot wire | 0.01448 W/m/K
342.95 K, 60 kPa, Gas, transient hot wire | 0.01472 W/m/K
342.98 K, 61 kPa, Gas, transient hot wire | 0.01475 W/m/K
343.11 K, 153 kPa, Gas, transient hot wire | 0.01428 W/m/K
343.15 K, 116 kPa, Gas, transient hot wire | 0.01455 W/m/K
343.18 K, 153 kPa, Gas, transient hot wire | 0.01436 W/m/K
343.2 K, 116 kPa, Gas, transient hot wire | 0.0145 W/m/K
343.36 K, 60 kPa, Gas, transient hot wire | 0.0147 W/m/K
343.39 K, 61 kPa, Gas, transient hot wire | 0.01474 W/m/K
343.88 K, 192 kPa, Gas, hot wire | 0.01563 W/m/K
343.89 K, 192 kPa, Gas, hot wire | 0.01557 W/m/K
343.9 K, 170 kPa, Gas, hot wire | 0.01524 W/m/K and 0.0152 W/m/K
343.91 K, 134 kPa, Gas, hot wire | 0.01511 W/m/K and 0.01509 W/m/K
343.94 K, 82 kPa, Gas, hot wire | 0.0148 W/m/K and 0.01481 W/m/K
343.99 K, 26 kPa, Gas, hot wire | 0.01441 W/m/K
344 K, 26 kPa, Gas, hot wire | 0.01439 W/m/K
344.02 K, 192 kPa, Gas, hot wire | 0.01569 W/m/K
344.03 K, 192 kPa, Gas, hot wire | 0.01571 W/m/K
344.04 K, 170 kPa, Gas, hot wire | 0.01532 W/m/K
344.06 K, 134 kPa, Gas, hot wire | 0.01505 W/m/K
344.07 K, 134 kPa, Gas, hot wire | 0.01503 W/m/K
344.1 K, 82 kPa, Gas, hot wire | 0.01476 W/m/K
344.1 K, 83 kPa, Gas, hot wire | 0.01479 W/m/K
344.14 K, 26 kPa, Gas, hot wire | 0.01446 W/m/K and 0.01445 W/m/K
344.17 K, 191 kPa, Gas, hot wire | 0.01575 W/m/K and 0.01573 W/m/K
344.19 K, 169 kPa, Gas, hot wire | 0.01545 W/m/K and 0.01542 W/m/K
344.21 K, 133 kPa, Gas, hot wire | 0.01513 W/m/K
344.25 K, 83 kPa, Gas, hot wire | 0.0148 W/m/K
344.26 K, 83 kPa, Gas, hot wire | 0.01479 W/m/K
344.31 K, 26 kPa, Gas, hot wire | 0.01448 W/m/K and 0.01449 W/m/K
344.31 K, 191 kPa, Gas, hot wire | 0.01589 W/m/K
344.32 K, 191 kPa, Gas, hot wire | 0.01586 W/m/K
344.35 K, 169 kPa, Gas, hot wire | 0.01551 W/m/K and 0.01555 W/m/K
344.38 K, 132 kPa, Gas, hot wire | 0.01516 W/m/K
344.38 K, 133 kPa, Gas, hot wire | 0.01519 W/m/K
344.43 K, 83 kPa, Gas, hot wire | 0.0148 W/m/K
344.44 K, 83 kPa, Gas, hot wire | 0.01478 W/m/K
344.47 K, 191 kPa, Gas, hot wire | 0.01601 W/m/K and 0.01602 W/m/K
344.49 K, 26 kPa, Gas, hot wire | 0.01446 W/m/K and 0.01447 W/m/K
344.51 K, 169 kPa, Gas, hot wire | 0.01563 W/m/K
